What was measured:
[1] = Behavior suppressing action (general behaviors of mice); assay type: in vivo, ddY-strain mice; settings: 10 mg/kg, tail vein; for Behavioral suppression: observed over one hour
Procedure: The effect of the present pyridinecarboxamide derivatives on general behaviors of mice was studied.
Using ddY-strain mice of 7 weeks old, test substance was administered at 100μ11/10 sec to the tail vein and behavior of the animal was observed over one hour. After the administration, sedative animal was evaluated as sedated, while animal with behavioral suppression was evaluated as suppressed.

hypoxic model of mice = assay: Cerebral protective action (anti-anoxia action), hypoxic model of mice, gasping duration after decapitation; assay type: in vivo, ddY-strain male mice; settings: 1.0 mg/kg i.v., 30 minutes before decapitation
Procedure: Cerebral protective action of the pyridinecarboxamide derivatives of this invention (an anti-anoxia action) were studied using a hypoxic model of mice.
Using ddY-strain male mice of 6 weeks old, the test substance of Compound 1, Compound 10 or Compound 11 was intravenously administered to the tail vein at the dose of 1.0 mg/kg. After 30 minutes from the administration, animals were decapitated to measure a gasping duration. This measurement was made by two persons who had not been informed of the test substances and the measured values were averaged to obtain the data. Also, the test was carried out in the same manner as described above except that Comparative Compound 1 was administered instead of the test substances.
The action of each substance will be shown in Table 2, with the gasping time of Comparative Compound 1 being defined as 1.
It is believed that grasping after decapitation is controlled by the respiratory center and, if the nervous functions are maintained by the respiratory center, the gasping duration would be prolonged. […] In view of the foregoing, the pyridinecarboxamide derivatives of this invention can prolong the gasping duration and then are useful as a cerebral protective agent.

[2] = Behavior suppressing activity (background statement); assay type: in vivo; settings: background / disclosure statement
[3] = system: hypoxia and anoxia models; settings: Sakurai et al., Jpn. J. Pharmacol. 1993; cited from earlier work
[4] = system: cerebral edema, ischemic reperfusion model using SHR-SP; assay: Anti-cerebral edema action (ischemic reperfusion model using SHR-SP); assay type: in vivo, male SHR-SP (spontaneous hypertensive rats); settings: 1 mg/kg i.v. twice; for Inhibitory rate of cerebral ischemia (cerebral edema): immediately after ischemia and immediately before reperfusion
Procedure: The pyridinecarboxamide derivatives of this invention were studied for the inhibitory action on cerebral edema with the model using SHR-SP (Spontaneous hypertensive rats which are vulnerable to cerebral hemorrhage).
Male SHR-SP of 15-17 weeks old were measured for the blood pressure one day before the testing and classified into groups. Both common carotid arteries were separated under pentobarbital anesthesia at 35 mg/kg and common carotid arteries were fastened by clamp to cause ischemia. After 2 hours, the clamp was removed from the common carotid artery to reperfuse. After a further 2 hours, the animal was decapitated and the cerebrum excised under ether anesthesia. The cerebrum was dried in an oven at 105° C. for 24 hours and the cerebral water content (%) was calculated. [formula]
Compound 1 and Comparative Compound 2 were intravenously administered twice, that is, immediately after the ischemia and immediately before the reperfusion at the dose of 1 mg/kg, respectively.

[5] = system: cerebral edema model using polyvinyl acetate; assay: Anti-cerebral edema action (obstructive cerebral ischemia model using polyvinyl acetate); assay type: in vivo, Wistar-strain male rats; settings: 1 mg/kg i.v., 5 minutes before polyvinyl acetate; rats
Procedure: Inhibiting action on cerebral ischemia was studied in an obstructive cerebral ischemia model using polyvinyl acetate.
The obstructive model was prepared as described below. (Hiroyoshi Nishi et al., Stroke 1989, 20:1236-1240)
Wistar-strain male rats weighing 200-350 g were used and fixed at the dorsal position under anesthesia of ether and then the left common carotid artery, internal carotid artery, external carotid artery were isolated. The external carotid artery was ligated, the pterylgopalatine artery was fastened with clamp and a cannula was inserted from the external carotid artery toward the branch between the internal carotid artery and the common carotid artery. 5 μl of a 3% polyvinyl acetate/52% ethanol solution in water was injected. After 30 seconds, the clamp was removed from the artery and then the wound was sutured. After 24 hours, animal was decapitated and the cerebrum was isolated, within 120 seconds from which wet weights of the left cerebrum and the right cerebrum were measured. The left and right cerebra were dried in an oven at 105° C. for 24 hours and then the dry weights were measured. A cerebral water content was calculated according to the following equation: [formula]
Compound 1 or Compound 9 was intravenously injected to the tail vein at the doses of 1.0 mg/kg and 3.0 mg/kg before 5 minutes from the administration of polyvinyl acetate.

hippocampus CA1 cells = assay: Inhibitory rate of delayed neuronal death; assay type: in vivo, MON/Jms/Gbs-strain male jirds; settings: 0.5 mg/kg, carotid artery, immediately after ischemia; jirds; 7 days
Procedure: MON/Jms/Gbs-strain male jirds (weighing 60-80 g) were fixed at the dorsal position under 1.5-2.0% halothane anesthesia and the common carotid artery was isolated. Ischemia was caused by fastening the common carotid artery with clamp for 3 minutes and then reperfused. After 7 days, the brain was excised under ether anesthesia and fixed with 10% formalin for 2 days and then tissue slices of the hippocampus were prepared. The hippocampus CA1 cells were stained using HE staining and the survival rate of the CA1 cells was evaluated.
Compound 1 was administered to the carotid artery at the dose of 0.5 mg/kg immediately after ischemia. Using as a control the case wherein the drug was not administered, inhibitory rate was calculated according to the following equation: [formula]

[6] = system: lipid peroxidation in rat brain homogenate; assay: Inhibitory action on lipid peroxidation in rat brain homogenate; assay type: biochemical, Wistar-strain male rats; settings: 10^-4 M, 37° C., 15 minutes
Procedure: Inhibitory action on lipid peroxidation was studied in rat brain homogenate.
Wistar-strain male rats (weighing 230-300 g) were decapitated and the cerebrum was quickly excised. A 4 times volume of a solution of 50 mM phosphoric acid and […] NaCl (pH 7.4) was added and the mixture was homogenated and then centrifuged at 3000 rpm for 10 minutes. The supernatant thus obtained was prepared to give a protein level of 2 mg/ml.
Determination of lipid peroxide was carried out using TBA method (thiobarbituric acid). To the brain homogenate was added each of Compound 1, Compound 5, Compound 6, Compound 8, Compound 9, Compound 11 and Compound 14 as a test substance to give a final concentration of 10^-4 M, thereby initiating the reaction. After incubation at 37° C. for 15 minutes, the reaction was stopped in ice by adding a 35% perchloric acid solution. The reaction mixture was centrifuged at 4° C. and 1000 rpm for 5 minutes and to the supernatant thus obtained was added a 0.5% TBA solution. The mixture was boiled at 100° C. for 15 minutes. After cooling, absorbance was determined at 532 nm. 1,1,3,3-Tetraethoxypropane as a standard was subjected to the reaction in the same manner as above and an amount of lipid peroxide, that is, an amount of the malondialdehyde (MDA) produced was determined from the absorbance.
Inhibitory rate of lipid peroxidation was calculated according to the following equation: [formula]

[7] = known drug, background statement; cited from earlier work

SMILES	General behaviors (result in words) [1]	Behavioral suppression [1]	Gasping duration (relative to Comparative Compound 1 defined as 1) (hypoxic model of mice)	Inhibitory rate of lipid peroxidation [6] [%]	also measured
CN1CCN(c2ccc(C(=O)NCCCCCCCCCCCO[N+](=O)[O-])cn2)CC1 [Comparative Compound 1, N-(11-nitroxy-1-undecanyl)-6-(4-methyl-1-piperazinyl)nicotinamide, reference compound]	suppression of behavior being shown	Sedated	1		Behavior suppressing activity [2]: observed to possess a behavior suppressing activity; Cerebral protective effect on the hypoxia and anoxia models [3]: could show a cerebral protective effect on the hypoxia and anoxia models
CN1CCN(c2ccc(C(=O)NCCCCCCCCCCCCO[N+](=O)[O-])cn2)CC1 [Comparative Compound 2, N-(12-nitroxy-1-dodecanyl)-6-(4-methyl-1-piperazinyl)nicotinamide, reference compound]					Anti-cerebral edema activity (result in words) [4]: made cerebral edema worse; Inhibitory rate of cerebral ischemia (cerebral edema) [4]: -90%
CN1CCN(c2ccc(C(=O)NCCCCCCCCCCCCCCO[N+](=O)[O-])cn2)CC1 [Compound 1, N-(14-Nitroxytetradecyl)-6-(4-methyl-1-piperazinyl)pyridine-3-carboxamide]	No abnormalities were observed in general behaviors	Non	2.6	91	Inhibitory rate of cerebral edema [5]: 44.0%; Anti-cerebral edema activity (result in words) [4]: potent anti-cerebral edema activity; Inhibitory rate of cerebral ischemia (cerebral edema) [4]: 63%; Inhibitory rate (delayed neuronal death) (hippocampus CA1 cells): 47%
CCN1CCN(c2ccc(C(=O)NCCCCCCCCCCCCCCO[N+](=O)[O-])cn2)CC1 [Compound 5, N-(14-Nitroxytetradecyl)-6-(4-ethyl-1-piperazinyl)pyridine-3-carboxamide]	No abnormalities were observed in general behaviors	Non		69	
O=C(NCCCCCCCCCCCCCCO[N+](=O)[O-])c1ccc(N2CCNCC2)nc1 [Compound 6, N-(14-Nitroxytetradecyl)-6-(1-piperazinyl)pyridine-3-carboxamide]	No abnormalities were observed in general behaviors	Non		59	
CCCN1CCN(c2ccc(C(=O)NCCCCCCCCCCCCCCO[N+](=O)[O-])cn2)CC1 [Compound 7, N-(14-Nitroxytetradecyl)-6-(4-propyl-1-piperazinyl)pyridine-3-carboxamide]	No abnormalities were observed in general behaviors	Non			
CC(C)N1CCN(c2ccc(C(=O)NCCCCCCCCCCCCCCO[N+](=O)[O-])cn2)CC1 [Compound 8, N-(14-Nitroxytetradecyl)-6-(4-isopropyl-1-piperazinyl)pyridine-3-carboxamide]	No abnormalities were observed in general behaviors	Non		70	
CN1CCN(c2ccc(C(=O)NCCCCCCCCCCCCCCCCO[N+](=O)[O-])cn2)CC1 [Compound 9, N-(16-Nitroxyhexadecyl)-6-(4-methyl-1-piperazinyl)pyridine-3-carboxamide]	No abnormalities were observed in general behaviors	Non		72	Inhibitory rate of cerebral edema [5]: 33.3%
CCN1CCN(c2ccc(C(=O)NCCCCCCCCCCCCCCCCO[N+](=O)[O-])cn2)CC1 [Compound 10, N-(16-Nitroxyhexadecyl)-6-(4-ethyl-1-piperazinyl)pyridine-3-carboxamide]	No abnormalities were observed in general behaviors	Non	1.7		
CC(C)N1CCN(c2ccc(C(=O)NCCCCCCCCCCCCCCCCO[N+](=O)[O-])cn2)CC1 [Compound 11, N-(16-Nitroxyhexadecyl)-6-(4-isopropyl-1-piperazinyl)pyridine-3-carboxamide]	No abnormalities were observed in general behaviors	Non	1.4	53	
CN1CCN(c2ccc(C(=O)NCCCCCCCCCCCCCCCCCCO[N+](=O)[O-])cn2)CC1 [Compound 13, N-(18-Nitroxyoctadecyl)-6-(4-methyl-1-piperazinyl)pyridine-3-carboxamide]	No abnormalities were observed in general behaviors	Non			
O=C(NCCCCCCCCCCCCCCCCCCO[N+](=O)[O-])c1ccc(N2CCNCC2)nc1 [Compound 14, N-(18-Nitroxyoctadecyl)-6-(1-piperazinyl)pyridine-3-carboxamide]				75	
CCN(CC)Cc1nccn1-c1ccc([N+](=O)[O-])cc1C(=O)c1ccccc1Cl [Nizofenone]					Behavior suppressing activity as a side-effect [7]: behavior suppressing activity

From patent publication US5972943A, “Pyridinecarboxamide derivatives” (Nisshin Flour Milling Co., Ltd., priority 1996, dated 1999)
